According to patent US20240358692A1, “TREATMENT OF SCLERODERMA” (Aisa Pharma, Inc., priority 2023, published 2024):

Tested on: participants with SSc-RP
Experiment: Frequency of weekly symptomatic RP attacks (patient diary), Phase 2a Part A
Format: in vivo, human
Settings: ITT Part A
Excerpt: Percent change from baseline evaluation for frequency of weekly RP attacks were or will be used as the primary efficacy variable. The sponsor-developed participant-informed diary will be used to record data. Frequency of weekly RP attacks is defined as the total number of RP attacks divided by the number of days with available diary data within the last 7 days of each dosing period then multiplied by 7. Total number of RP attacks during the last 7 days of screening period divided by the number of days with available data then multiplied by 7 will be used as baseline for the analysis of all periods. The variable will be calculated as follows: […]
Percent change from baseline evaluation for frequency of weekly RP attacks was and will be the primary efficacy endpoint. Frequency of weekly RP attacks is defined as the total number of RP attacks divided by the number of days with available diary data within the last 7 days of each dosing period then multiplied by 7. Total number of RP attacks during the last 7 days of screening period divided by the number of days with available data then multiplied by 7 will be used as baseline for the analysis of all periods.

[1] = Tadalafil 5 mg, n=1, Excluding Outliers
[2] = Tadalafil 5 mg, n=2, by Baseline RCS, second block (RCS >5.0)
[3] = tadalafil 5 mg daily, n=1, excluding outliers, second Baseline RCS subgroup, last 7 days of dosing

SMILES: CN1CC(=O)N2[C@H](c3ccc4c(c3)OCO4)c3[nH]c4ccccc4c3C[C@@H]2C1=O [Tadalafil]
- Weekly Symptomatic RP Attacks Change from Baseline, Mean [1]: 6.00
- Weekly Symptomatic RP Attacks Percent Change from Baseline, Mean [1]: 50.00%
- Weekly Symptomatic RP Attacks, Mean [1]: 18.00
- Weekly Symptomatic RP Attacks Change from Baseline, Mean [2]: 4.50
- Weekly Symptomatic RP Attacks Percent Change from Baseline, Mean [2]: 62.50%
- Weekly Symptomatic RP Attacks, Mean [2]: 12.50
- Weekly Symptomatic RP Attacks Change from Baseline, Mean [3]: 6.00
- Weekly Symptomatic RP Attacks Percent Change from Baseline, Mean [3]: 50.00%
- Weekly Symptomatic RP Attacks, Mean [3]: 18.00
